From patent US9974761B2, “Medications for deposition on biological surfaces” (The Procter & Gamble Company, priority 2014, dated 2018)

Columns and labels:
[1] = Sensation reported by panelists; format: in vivo; conditions: perceived sensation, in words
human TRPM8 = biological target: T1, human TRPM8; assay: TRPM8 Protocol-FLIPR Assay (intracellular Ca2+); format: cell-based; conditions: for TRPM8 Time Course Activity 5 min % of WS5 / TRPM8 Time Course Activity 10 min % of WS5: dose 12.2 nM, vs 30 uM WS-5
T1 construct: Receptor Activity TRPM8; Receptor Activity TRPM8; other: test compound at 0.001%; relative to WS5 control (30 microMolar); HEK 293 cells; other: test compound at 0.004%; other: test compound at 5.2E−5%; relative to WS5 control
Procedure: To determine whether TRPM8 is activated, the intracellular calcium ion (Ca^2+) level was measured from transfected cells with the TRPM8 receptor sequence (SEQ ID NO: 3). HEK-293 (human embryonic kidney) cells stably transfected with human TRPM8 were grown in 15 ml growth medium (high glucose DMEM (Dulbecco's Modification of Eagle's Medium) supplemented with 10% FBS (fetal bovine serum), 100 ug/ml penicillin/streptomycin, 5 μg/ml blasticindin, and 100 μg/ml zeocin) in a 75 cm^2 flask for 3 days at 37° C. in a mammalian cell culture incubator set at 5% CO2 Cells were detached with addition of 2 ml of trypsin-EDTA buffer (GIBCO® 25200, Invitrogen, Grand Island, N.Y.) for about 2-3 min. Trypsin was inactivated by addition of 8 ml growth medium. Cells were transferred to a 50 ml tube and centrifuged at 850 rpm for 3 minutes to remove medium. After centrifugation, a pellet of cells was formed in the bottom of the tube separating them from the supernatant solution. The supernatant was discarded and the cell pellet was suspended in 1 ml of fresh growth medium to which 5 μl (12.5 μg) of Fluo-4 AM (Molecular Probes, Inc., Eugene, Oreg.) calcium indicator was added and incubated for 30 min with gentle shaking. Fluo-4 AM is a fluorescent dye used for quantifying cellular Ca^2+ concentrations in the 100 nM to 1 microM range. At the end of 30 minutes, 45 ml of assay buffer (1× HBSS (Hank's Balanced Salt Solution), 20 mM HEPES (4-(2-Hydroxyethyl)-1-piperazineethanesulfonic acid)) was added to wash cells and the resulting mixture was then centrifuged at 850 rpm for 3 minutes to remove excess buffer and Fluo-4 AM calcium indicator.
The pelleted cells were re-suspended in 10 ml assay buffer and 90 μl aliquots (˜50,000 cells) per well delivered to a 96-well assay plate containing 10 μl of test compounds (1 mM in assay buffer, […]) or buffer control and incubated at room temperature for 30 minutes. After 30 minutes, a plate was placed into a fluorometric imaging plate reader (FLIPR384 from Molecular Devices, Sunnyvale, Calif.) and basal fluorescence recorded (excitation wave length 488 nm and emission wave length 510 nm). Then 20 μl of […] of TRPM8 agonist WS5 coolant in the assay buffer was added and fluorescence recorded. For determining the direct effect of test compounds on TRPM8, fluorescence was measured immediately after addition of each compound (TABLES 2 and 3). Additional discussion of the FLIPR method can be found in Smart et al., Characterization using FLIPR of human vanilloid VR1 receptor pharmacology, European Journal of Pharmacology 417, 51-58 (2001) and Liu et al., Development and validation of a platelet calcium flux assay using a fluorescent imaging plate reader, Analytical Biochemistry 357, 216-224 (2006).
TRPM8 activation was determined by measuring intracellular calcium ion (Ca^2+) level from transfected cells with the TRPM8 receptor gene, as described in EXAMPLE 1, the results of which are shown in TABLES 4 and 5.

Row | EC50 (human TRPM8; 3 min) [nM] | TRPM8 Time Course Activity 5 min % of WS5 (human TRPM8; 5 min) [%] | TRPM8 Time Course Activity 10 min % of WS5 (human TRPM8; 10 min) [%] | EC50 (human TRPM8; 5 min) [nM] | EC50 (human TRPM8; 10 min) [nM] | Compound | sensation (cooling, warming, burning) [1]
1 | 1.48 | 103.8 | 115.5 | – | – | CC(C)[C@@H]1CC[C@@H](C)C[C@H]1C(=O)NCC(NC(=O)[C@@H](C)N)c1ccccc1 (single isomer, unassigned) [Compound 28 fraction 1] | intense cooling
2 | 55.5 | 65.7 | 71.1 | 45.7 | 37.4 | CC(C)[C@@H]1CC[C@@H](C)C[C@H]1C(=O)NCC(NC(=O)[C@@H](C)N)c1ccccc1 (single isomer, unassigned) [Compound 28 fraction 2] | did not provide a cooling response
